Measurements as given in patent US20210163976A1, “GENETICALLY ALTERED PLANTS EXPRESSING HETEROLOGOUS RECEPTORS THAT RECOGNIZE LIPO-CHITOOLIGOSACCHARIDES” (Aarhus Universitet, priority 2018, published 2021).
“Also recorded” adds a separate entry of the source.

What was measured:
[1] = target: T1, Medicago NFP ectodomain (NFP-ECD, WT) (Medicago truncatula, UniProt Q0GXS4); experiment: Biolayer interferometry (BLI) binding of NFP-ECD to immobilized biotinylated ligands; details: for reduction of binding to NFP-ECD compared to wild type S. meliloti LCO-IV: FIGS. 15D-15E; for binding to NFP of mutated LCOs: FIG. 3B, Example 4
T1 construct: The Medicago truncatula NFP ectodomain (residues 28-246) was codon-optimized; AcMNPV gp67 signal peptide (replaces native signal peptide 1-27) (N); made in house; host or cells: Sf9 (Spodoptera frugiperda), baculovirus, secreted into medium
T1 sequence (Q0GXS4 28-246): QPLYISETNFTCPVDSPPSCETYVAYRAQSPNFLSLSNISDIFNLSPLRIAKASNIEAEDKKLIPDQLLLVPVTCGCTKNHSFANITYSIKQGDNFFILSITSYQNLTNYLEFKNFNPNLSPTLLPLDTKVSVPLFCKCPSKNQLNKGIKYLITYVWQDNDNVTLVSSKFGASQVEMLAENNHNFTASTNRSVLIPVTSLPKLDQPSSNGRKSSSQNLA
Procedure: (§1) Expression and purification of Medicago NFP ectodomain: The Medicago truncatula NFP ectodomain (residues 28-246) was codon-optimized for insect cell expression (Genscript, Piscataway, USA) and cloned into the pOET4 baculovirus transfer vector (Oxford Expression Technologies). The native NFP signal peptide (residues 1-27, predicted by SignalP 4.1) was replaced with the AcMNPV gp67 signal peptide to facilitate secretion and a hexa-histidine tag was added to the C-terminus. Point mutants of NFP were engineered using site-directed mutagenesis. Recombinant baculoviruses were produced in Sf9 cells (Spodoptera frugiperda) using the FlashBac Gold kit (Oxford Expression technologies) according to the manufacturer's instructions with Lipofectin (ThermoFisher Scientific) as a transfection reagent. Protein expression was performed as follows. Suspension-cultured Sf9 cells were maintained with shaking at 299 K in serum-free MAX-XP (BD-Biosciences, discontinued) or HyClone SFX (GE Healthcare) medium supplemented with 1% Pen-Strep (10000 U/ml, Life technologies) and 1% CD lipid concentrate (Gibco). Protein expression was induced by adding recombinant passage 3 virus once the Sf9 cells reached a cell density of 1.0*10^7^6 cells/ml. After 5-7 days of expression, medium supernatant containing NFP ectodomains was harvested by centrifugation. This was followed by an overnight dialysis step against 50 mM Tris-HCl pH 8, 200 mM NaCl at 277 K. The NFP ectodomain was enriched by two subsequent steps of Ni-IMAC purification (HisTrap excel/HisTrap HP, both GE Healthcare). For crystallography experiments, N-glycans were removed using the endoglycosidase PNGase F (1:15 (w/w), room temperature, overnight). As a final purification step, NFP ectodomain was purified by SEC on a Superdex 200 10/300 or HiLoad Superdex 200 16/600 (both GE Healthcare) in phosphate buffered saline at pH 7.2 supplemented to a total of 500 mM NaCl (for binding assays) or 50 mM Tris-HCl, 200 mM NaCl (for crystallography). NFP ectodomain elutes as a single, homogeneous peak corresponding to a monomer. Point mutated versions of NFP were expressed and purified following the same protocol.
(§2) Biolayer interferometry (BLI): Binding of NFP and mutated versions of NFP to ligands was measured on an Octet RED 96 system (Pall ForteBio). The ligands used were LCO-IV (from S. meliloti), LCO-V (from S. meliloti), LCO-V (from M. loti), and C06 (from M. loti). S. meliloti LCO consists of a tetrameric/pentameric N-acetylglucosamine backbone that is 0-sulfated on the reducing terminal residue, 0-acetylated on the non-reducing terminal residue, and mono-N-acylated by unsaturated C16 acyl groups. M. loti LCO is a pentameric N-acetylglucosamine with a cis-vaccenic acid and a carbamoyl group at the non-reducing terminal residue together with a 2,4-O-acetylfucose at the reducing terminal residue. Biotinylated ligand conjugates were immobilized on streptavidin biosensors (kinetic quality, Pall ForteBio) at a concentration of 125-250 nM for 5 minutes. The binding assays using the S. meliloti ligands (LCO-IV and LCO-V) were replicated seven times, while the binding assays using the M loti ligands (LCO-V and C06) were replicated six times. Data analysis was performed in GraphPad Prism 6 software (GraphPad Software, Inc.). Equilibrium dissociation constants derived from the steady-state were determined by applying a non-linear regression (one site, specific binding) to the response at equilibrium plotted against the protein concentration. Kinetic parameters were determined by non-linear regression (association followed by dissociation) on the subtracted data.
(§3) Mutated lipochitooligosaccharide (LCO) ligands: S. meliloti LCO consists of a tetrameric/pentameric N-acetylglucosamine backbone that is O-sulfated on the reducing terminal residue, O-acetylated on the non-reducing terminal residue, and mono-N-acylated by unsaturated C16 acyl groups. […]

[2] = target: T2, Medicago truncatula NFP ectodomain (NFP-ECD, residues 28-246), wild type, SEQ ID NO: 1 (Medicago truncatula, UniProt Q0GXS4); experiment: Biolayer interferometry (BLI) binding of NFP / NFP-ECD to immobilized LCO and CO ligands; details: for Binding of mutated LCOs to NFP (in words): ligand binding tests, FIG. 3B
T2 construct: The Medicago truncatula NFP ectodomain (residues 28-246); AcMNPV gp67 signal peptide (replaces native signal peptide 1-27) (N); hexa-histidine tag (C); made in house; host or cells: Sf9 cells (Spodoptera frugiperda), baculovirus
Procedure: as §1, §2, §3

[3] = target: T3, Medicago truncatula NFP ectodomain (NFP-ECD) variant L147D/L154D (parent SEQ ID NO: 1) (Medicago truncatula, UniProt Q0GXS4, L147D/L154D); experiment: Biolayer interferometry (BLI) binding of hydrophobic patch mutant NFP L147D/L154D to S. meliloti LCO-IV
T3 construct: The Medicago truncatula NFP ectodomain (residues 28-246); AcMNPV gp67 signal peptide (replaces native signal peptide 1-27) (N); hexa-histidine tag (C); made in house; host or cells: Sf9 cells (Spodoptera frugiperda), baculovirus
T3 sequence (Q0GXS4 28-246 L147D/L154D): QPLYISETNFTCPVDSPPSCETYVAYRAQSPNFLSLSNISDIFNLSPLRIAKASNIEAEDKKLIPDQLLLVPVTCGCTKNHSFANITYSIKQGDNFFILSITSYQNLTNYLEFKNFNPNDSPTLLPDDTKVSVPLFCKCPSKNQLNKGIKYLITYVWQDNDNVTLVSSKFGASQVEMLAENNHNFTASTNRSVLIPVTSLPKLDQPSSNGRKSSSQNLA
Procedure: as §1
(§4) Creation of NFP point mutations: The NFP leucine residues L147 and L154 were replaced with aspartate residues. Aspartate is similar in size to leucine, but negatively charged where leucine is hydrophobic. Point mutants of NFP were engineered using site-directed mutagenesis. In particular, a double-mutated NFP was engineered where the leucine residues L147 and L154 were replaced with aspartate residues to create the mutant NFP L147D L154D. Point mutated versions of NFP were expressed and purified as described in Example 1.
(§5) NFP mutant binding assays: The binding assay using NFP wild type (WT) protein was replicated seven times, while the binding assay using the NFP mutant NFP L147D L154D was replicated four times.
Biolayer interferometry (BLI): Binding of NFP WT and NFP L147D/L154D mutant to S. meliloti LCO-IV was measured on an Octet RED 96 system (Pall ForteBio). […] Equilibrium dissociation constants derived from the steady-state were determined by applying a non-linear regression (one site, specific binding) to the response at equilibrium plotted against the protein concentration. Kinetic parameters were determined by non-linear regression (association followed by dissociation) on the subtracted data. […]

[4] = target: T4, NFP L147D L154D ectodomain (Medicago truncatula, UniProt Q0GXS4, L147D/L154D); experiment: BLI binding of hydrophobic patch mutant NFP-ECD to S. meliloti LCO-IV
T4 construct: The Medicago truncatula NFP ectodomain (residues 28-246) was codon-optimized; AcMNPV gp67 signal peptide (replaces native signal peptide 1-27) (N); made in house; host or cells: Sf9 (Spodoptera frugiperda), baculovirus, secreted into medium
T4 sequence (Q0GXS4 28-246 L147D/L154D): as above
Excerpt: as §4, §5
Biolayer interferometry (BLI): Binding of NFP WT and NFP L147D/L154D mutant to S. meliloti LCO-IV was measured on an Octet RED 96 system (Pall ForteBio). S. meliloti LCO consists of a tetrameric/pentameric N-acetylglucosamine backbone that is O-sulfated on the reducing terminal residue, 0-acetylated on the non-reducing terminal residue, and mono-N-acylated by unsaturated C16 acyl groups. Biotinylated ligand conjugates were immobilized on streptavidin biosensors (kinetic quality, Pall ForteBio) at a concentration of 125-250 nM for 5 minutes. The binding assays were replicated 7 times for the NFP WT, and 4 times for the NFP L147D/L154D mutant. Data analysis was performed in GraphPad Prism 6 software (GraphPad Software, Inc.). Equilibrium dissociation constants derived from the steady-state were determined by applying a non-linear regression (one site, specific binding) to the response at equilibrium plotted against the protein concentration. Kinetic parameters were determined by non-linear regression (association followed by dissociation) on the subtracted data. Binding ofA. thaliana CERK1 (AtCERK1) to chitopentaose (C05) and chitooctaose (C08) was measured in the same way.

[5] = target: T2, Medicago truncatula NFP ectodomain (NFP-ECD, residues 28-246), wild type, SEQ ID NO: 1; experiment: Microscale thermophoresis (MST) binding of NFP to carbohydrate ligands; details: read-out: Dissociation constant (Kd)
Procedure: as §1, with “Point mutated versions of NFP were expressed and purified following the same protocol.” left out

In the case of `CCCCCC/C=C\CCCCC/C=C/C(=O)N[C@H]1[C@H](O[C@H]2[C@H](O)[C@@H](NC(C)=O)[C@H](O[C@H]3[C@H](O)[C@@H](NC(C)=O)[C@H](O[C@H]4[C@H](O)[C@@H](NC(C)=O)C(O)O[C@@H]4COS(=O)(=O)O)O[C@@H]3CO)O[C@@H]2CO)O[C@H](CO)[C@@H](O)[C@@H]1O` (some centres unmarked) [nodL-LCO-IV], the “reduction of binding to NFP-ECD compared to wild type S. meliloti LCO-IV” value ([1]; BLI) is reported as “more than 10 fold”, the “binding to NFP of mutated LCOs” value [1] is reported as “Dramatically reduced binding” and the “Binding of mutated LCOs to NFP (in words)” value (“Binding of mutated LCOs” for short) [2] is reported as “Dramatically reduced binding”.
In the case of `CCCCCC/C=C\CCCCC/C=C/C(=O)N[C@H]1[C@H](O[C@H]2[C@H](O)[C@@H](NC(C)=O)[C@H](O[C@H]3[C@H](O)[C@@H](NC(C)=O)[C@H](O[C@H]4[C@H](O)[C@@H](NC(C)=O)C(O)O[C@@H]4COS(=O)(=O)O)O[C@@H]3CO)O[C@@H]2CO)O[C@H](COC(C)=O)[C@@H](O)[C@@H]1O` (some centres unmarked) [S. meliloti LCO-IV], the “Affinity change versus NFP WT (in words)” value ([3]; FIG. 4B) is reported as “approximately two times lower affinity”, the “Association (Kon) change versus NFP WT (in words)” value ([3]; FIG. 4B) is reported as “almost unaffected” and the “Dissociation (Koff), times faster than NFP WT” value ([3]; FIG. 4B) is reported as “approximately 15 times”. The “Association rate (kon), fold faster than WT NFP-ECD” value ([3]; FIGS. 16A-16C) was 4.5 fold, the “Dissociation rate (koff), fold increase compared to WT NFP-ECD” value ([3]; FIGS. 16A-16C) was 59 fold and the “affinity compared to NFP WT” value ([4]; FIG. 4B) was “approximately two times lower affinity”. For the same molecule, the “association (Kon) compared to NFP WT” value ([4]; FIG. 4B) was “almost unaffected”, the “association rate (kon) faster than WT NFP-ECD” value ([4]; FIGS. 16A-16C) was 4.5 fold and the “dissociation rate (koff) increase compared to WT NFP-ECD” value ([4]; FIGS. 16A-16C) was 59 fold. For the same molecule, the “lower affinity compared to WT NFP-ECD” value ([4]; FIGS. 16A-16C) was 13 fold.
`CC(=O)N[C@H]1[C@H](O[C@H]2[C@H](O)[C@@H](NC(C)=O)[C@H](O[C@H]3[C@H](O)[C@@H](NC(C)=O)C(O)O[C@@H]3CO)O[C@@H]2CO)O[C@H](CO)[C@@H](O[C@@H]2O[C@H](CO)[C@@H](O[C@@H]3O[C@H](CO)[C@@H](O[C@@H]4O[C@H](CO)[C@@H](O)[C@H](O)[C@H]4NC(C)=O)[C@H](O)[C@H]3NC(C)=O)[C@H](O)[C@H]2NC(C)=O)[C@@H]1O` (some centres unmarked) [M. loti C06] was tested, and the “NFP binding (BLI)” value ([1]; BLI, FIG. 2B, six replicates) was “not detected; also recorded: does not bind” and the “Binding to NFP (in words)” value ([2]; BLI, FIG. 2B, six replicates) was “neither was NFP binding; also recorded: does not bind”.
With `CCCCCC/C=C\CCCCCCCCCC(=O)N[C@H]1[C@H](O[C@H]2[C@H](O)[C@@H](NC(C)=O)[C@H](O[C@H]3[C@H](O)[C@@H](NC(C)=O)[C@H](O[C@H]4[C@H](O)[C@@H](NC(C)=O)C(O)O[C@@H]4COS(=O)(=O)O)O[C@@H]3CO)O[C@@H]2CO)O[C@H](COC(C)=O)[C@@H](O)[C@@H]1O` (some centres unmarked) [nodFE-LCO-IV] the “binding to NFP of mutated LCOs” value [1] was “reduced NFP binding”, the “NFP-ECD binding (BLI)” value ([1]; further BLI assays, FIGS. 15B-15E) was “no significant binding” and the “Binding to NFP-ECD (in words)” value ([2]; further BLI assays, FIGS. 15B-15E, analyte 1.56-100 μM) was “no significant binding”. For the same molecule, the “Binding of mutated LCOs” value [2] was “reduced NFP binding”.
`CC(=O)N[C@H]1[C@H](O[C@H]2[C@H](O)[C@@H](NC(C)=O)C(O)O[C@@H]2CO)O[C@H](CO)[C@@H](O[C@@H]2O[C@H](CO)[C@@H](O[C@@H]3O[C@H](CO)[C@@H](O)[C@H](O)[C@H]3NC(C)=O)[C@H](O)[C@H]2NC(C)=O)[C@@H]1O` (some centres unmarked) [CO4] was tested, and the Kd [5] was 150 µM.
For `CCCCCC/C=C\CCCCC/C=C/C(=O)N[C@H]1[C@H](O[C@H]2[C@H](O)[C@@H](NC(C)=O)[C@H](O[C@H]3[C@H](O)[C@@H](NC(C)=O)[C@H](O[C@H]4[C@H](O)[C@@H](NC(C)=O)C(O)O[C@@H]4CO)O[C@@H]3CO)O[C@@H]2CO)O[C@H](COC(C)=O)[C@@H](O)[C@@H]1O` (some centres unmarked) [nodH-LCO-IV], the “reduction of binding to NFP-ECD compared to wild type S. meliloti LCO-IV” value ([1]; BLI) was “more than 21 fold”, the “binding to NFP of mutated LCOs” value [1] was “Dramatically reduced binding” and the “Binding of mutated LCOs” value [2] was “Dramatically reduced binding”.
